In ChEMBL document CHEMBL4507305, “Data for DCP probe TP-024” (2021):

How the values were obtained:
Settings in all cases: Compound concentration 1000.0 nM
[1] = target: Serine/threonine-protein kinase OSR1 (Homo sapiens) (UniProt O95747)
[2] = target: Casein kinase II subunit alpha' (Homo sapiens) (UniProt P19784)
[3] = target: Serine/threonine-protein kinase MRCK beta (Homo sapiens) (UniProt Q9Y5S2)
[4] = target: Dual specificity mitogen-activated protein kinase kinase 3 (Homo sapiens) (UniProt P46734)
[5] = target: Serine/threonine-protein kinase D2 (Homo sapiens) (UniProt Q9BZL6)
[6] = target: Mitogen-activated protein kinase kinase kinase 9 (Homo sapiens) (UniProt P80192)
[7] = target: Ephrin type-B receptor 3 (Homo sapiens) (UniProt P54753)
[8] = target: Serine/threonine-protein kinase PAK 3 (Homo sapiens) (UniProt O75914)
[9] = target: Phosphatidylinositol 5-phosphate 4-kinase type-2 beta (Homo sapiens) (UniProt P78356)
[10] = target: Inhibitor of nuclear factor kappa-B kinase subunit alpha (Homo sapiens) (UniProt O15111)
[11] = target: Serine/threonine-protein kinase WNK2 (Homo sapiens) (UniProt Q9Y3S1)
[12] = target: Serine/threonine-protein kinase D1 (Homo sapiens) (UniProt Q15139)
[13] = target: Serine/threonine-protein kinase RIO2 (Homo sapiens) (UniProt Q9BVS4)
[14] = target: Beta-adrenergic receptor kinase 1 (Homo sapiens) (UniProt P25098)
[15] = target: Dual specificity tyrosine-phosphorylation-regulated kinase 1A (Homo sapiens) (UniProt Q13627)
[16] = target: Activin receptor type-1 (Homo sapiens) (UniProt Q04771)
[17] = target: Dual specificity mitogen-activated protein kinase kinase 1 (Homo sapiens) (UniProt Q02750)
[18] = target: Serine/threonine-protein kinase DCLK2 (Homo sapiens) (UniProt Q8N568)
[19] = target: Casein kinase I isoform alpha (Homo sapiens) (UniProt P48729)
[20] = system: Epidermal growth factor receptor (Homo sapiens), P00533 [G719S]
[21] = target: Casein kinase I isoform alpha-like (Homo sapiens) (UniProt Q8N752)
[22] = target: Cyclin-dependent kinase-like 1 (Homo sapiens) (UniProt Q00532)
[23] = target: Dual specificity protein kinase TTK (Homo sapiens) (UniProt P33981)
[24] = system: Tyrosine-protein kinase ABL1 (Homo sapiens), P00519 [H396P]
[25] = target: Serine/threonine-protein kinase SIK3 (Homo sapiens) (UniProt Q9Y2K2)
[26] = target: Proto-oncogene tyrosine-protein kinase ROS (Homo sapiens) (UniProt P08922)
[27] = target: Calcium/calmodulin-dependent protein kinase type 1G (Homo sapiens) (UniProt Q96NX5)
[28] = target: Ribosomal protein S6 kinase alpha-4 (Homo sapiens) (UniProt O75676)
[29] = target: Tyrosine-protein kinase Fes/Fps (Homo sapiens) (UniProt P07332)
[30] = target: Tyrosine-protein kinase CSK (Homo sapiens) (UniProt P41240)
[31] = target: Peripheral plasma membrane protein CASK (Homo sapiens) (UniProt O14936)
[32] = target: Ribosomal protein S6 kinase alpha-4 (Homo sapiens) (UniProt O75676); remark: listed apart in the source
[33] = system: Serine/threonine-protein kinase B-raf (Homo sapiens), P15056 [V600E]
[34] = target: Fibroblast growth factor receptor 4 (Homo sapiens) (UniProt P22455)
[35] = target: Mast/stem cell growth factor receptor Kit (Homo sapiens) (UniProt P10721)
[36] = target: Dual specificity protein kinase CLK3 (Homo sapiens) (UniProt P49761)
[37] = target: Serine/threonine-protein kinase PknB (Mycobacterium tuberculosis) (UniProt P9WI81)
[38] = target: Death-associated protein kinase 1 (Homo sapiens) (UniProt P53355)
[39] = target: Interleukin-1 receptor-associated kinase 1 (Homo sapiens) (UniProt P51617)
[40] = target: Serine/threonine-protein kinase TAO3 (Homo sapiens) (UniProt Q9H2K8)
[41] = target: Atypical kinase COQ8A, mitochondrial (Homo sapiens) (UniProt Q8NI60)
[42] = target: Mitogen-activated protein kinase kinase kinase kinase 4 (Homo sapiens) (UniProt O95819)
[43] = target: Angiopoietin-1 receptor (Homo sapiens) (UniProt Q02763)
[44] = target: Phosphatidylinositol 4-phosphate 5-kinase type-1 gamma (Homo sapiens) (UniProt O60331)
[45] = target: Phosphatidylinositol 4-kinase beta (Homo sapiens) (UniProt Q9UBF8)

Ribosomal protein S6 kinase alpha-4 (Homo sapiens), sequence (O75676 whole entry, looked up): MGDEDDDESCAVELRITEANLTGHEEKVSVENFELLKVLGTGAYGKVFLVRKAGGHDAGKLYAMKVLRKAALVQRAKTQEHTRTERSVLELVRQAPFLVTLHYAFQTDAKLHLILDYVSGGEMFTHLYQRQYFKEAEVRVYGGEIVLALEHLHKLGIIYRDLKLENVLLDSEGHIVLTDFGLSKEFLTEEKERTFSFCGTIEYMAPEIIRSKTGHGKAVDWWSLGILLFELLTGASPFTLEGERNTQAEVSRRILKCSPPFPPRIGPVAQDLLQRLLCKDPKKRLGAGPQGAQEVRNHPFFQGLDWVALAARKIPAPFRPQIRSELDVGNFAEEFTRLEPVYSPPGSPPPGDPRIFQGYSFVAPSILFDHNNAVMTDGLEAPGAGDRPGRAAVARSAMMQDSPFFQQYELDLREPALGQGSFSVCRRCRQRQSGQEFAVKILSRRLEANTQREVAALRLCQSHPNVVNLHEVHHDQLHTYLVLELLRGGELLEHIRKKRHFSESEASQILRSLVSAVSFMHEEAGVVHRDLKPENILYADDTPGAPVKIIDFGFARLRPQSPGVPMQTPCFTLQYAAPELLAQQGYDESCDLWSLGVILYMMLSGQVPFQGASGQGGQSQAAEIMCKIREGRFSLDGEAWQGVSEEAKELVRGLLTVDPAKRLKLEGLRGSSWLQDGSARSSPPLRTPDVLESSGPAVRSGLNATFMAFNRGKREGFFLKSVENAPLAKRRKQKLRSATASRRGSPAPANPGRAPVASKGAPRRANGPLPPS
Serine/threonine-protein kinase D2 (Homo sapiens), sequence (Q9BZL6 whole entry): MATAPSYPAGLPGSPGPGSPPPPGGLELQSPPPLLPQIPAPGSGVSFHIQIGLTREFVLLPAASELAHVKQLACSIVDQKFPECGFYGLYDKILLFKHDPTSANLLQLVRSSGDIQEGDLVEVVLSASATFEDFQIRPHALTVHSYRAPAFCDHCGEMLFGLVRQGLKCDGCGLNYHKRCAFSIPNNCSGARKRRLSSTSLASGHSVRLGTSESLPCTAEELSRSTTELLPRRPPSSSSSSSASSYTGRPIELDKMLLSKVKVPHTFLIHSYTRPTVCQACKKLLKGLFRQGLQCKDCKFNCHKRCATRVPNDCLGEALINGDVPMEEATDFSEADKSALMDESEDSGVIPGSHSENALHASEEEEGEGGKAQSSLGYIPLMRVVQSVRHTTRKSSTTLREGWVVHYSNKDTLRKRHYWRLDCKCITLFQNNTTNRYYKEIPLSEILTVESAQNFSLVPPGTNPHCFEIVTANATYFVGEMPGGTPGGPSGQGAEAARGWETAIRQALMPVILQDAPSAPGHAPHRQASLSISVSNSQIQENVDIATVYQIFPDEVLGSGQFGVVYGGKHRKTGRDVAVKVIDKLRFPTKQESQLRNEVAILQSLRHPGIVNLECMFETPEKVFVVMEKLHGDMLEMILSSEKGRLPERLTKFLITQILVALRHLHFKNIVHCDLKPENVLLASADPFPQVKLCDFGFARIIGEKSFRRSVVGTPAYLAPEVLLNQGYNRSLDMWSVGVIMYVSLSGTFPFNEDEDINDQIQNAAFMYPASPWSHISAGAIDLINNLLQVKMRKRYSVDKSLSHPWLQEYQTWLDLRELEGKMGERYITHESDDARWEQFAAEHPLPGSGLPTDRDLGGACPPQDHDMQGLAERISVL
Activin receptor type-1 (Homo sapiens), sequence (Q04771 whole entry): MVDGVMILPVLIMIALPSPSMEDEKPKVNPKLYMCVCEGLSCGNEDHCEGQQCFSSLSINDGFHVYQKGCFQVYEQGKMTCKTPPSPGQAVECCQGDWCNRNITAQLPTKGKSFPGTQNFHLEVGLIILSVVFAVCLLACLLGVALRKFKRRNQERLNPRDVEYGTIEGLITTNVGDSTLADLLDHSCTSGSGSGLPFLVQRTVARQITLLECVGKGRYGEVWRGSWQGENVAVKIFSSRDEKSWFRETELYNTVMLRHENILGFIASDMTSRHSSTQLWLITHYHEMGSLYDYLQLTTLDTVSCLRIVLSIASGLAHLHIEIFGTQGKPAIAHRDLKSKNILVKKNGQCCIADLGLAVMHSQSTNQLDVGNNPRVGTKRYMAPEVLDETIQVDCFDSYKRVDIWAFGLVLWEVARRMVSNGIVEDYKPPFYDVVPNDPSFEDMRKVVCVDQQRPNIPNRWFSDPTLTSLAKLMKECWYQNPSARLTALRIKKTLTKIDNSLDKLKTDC
Casein kinase I isoform alpha-like (Homo sapiens), sequence (Q8N752 whole entry, canonical isoform): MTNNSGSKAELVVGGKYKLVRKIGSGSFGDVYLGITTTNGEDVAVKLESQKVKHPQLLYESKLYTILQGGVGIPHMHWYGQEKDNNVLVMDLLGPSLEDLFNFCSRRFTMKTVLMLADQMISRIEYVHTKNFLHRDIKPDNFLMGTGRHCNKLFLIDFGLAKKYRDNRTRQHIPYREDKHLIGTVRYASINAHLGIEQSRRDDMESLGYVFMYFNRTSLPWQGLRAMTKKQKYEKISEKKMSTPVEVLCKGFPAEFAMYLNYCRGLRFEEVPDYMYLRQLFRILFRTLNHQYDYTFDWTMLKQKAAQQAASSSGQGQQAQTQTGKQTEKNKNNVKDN
Ephrin type-B receptor 3 (Homo sapiens), sequence (P54753 whole entry): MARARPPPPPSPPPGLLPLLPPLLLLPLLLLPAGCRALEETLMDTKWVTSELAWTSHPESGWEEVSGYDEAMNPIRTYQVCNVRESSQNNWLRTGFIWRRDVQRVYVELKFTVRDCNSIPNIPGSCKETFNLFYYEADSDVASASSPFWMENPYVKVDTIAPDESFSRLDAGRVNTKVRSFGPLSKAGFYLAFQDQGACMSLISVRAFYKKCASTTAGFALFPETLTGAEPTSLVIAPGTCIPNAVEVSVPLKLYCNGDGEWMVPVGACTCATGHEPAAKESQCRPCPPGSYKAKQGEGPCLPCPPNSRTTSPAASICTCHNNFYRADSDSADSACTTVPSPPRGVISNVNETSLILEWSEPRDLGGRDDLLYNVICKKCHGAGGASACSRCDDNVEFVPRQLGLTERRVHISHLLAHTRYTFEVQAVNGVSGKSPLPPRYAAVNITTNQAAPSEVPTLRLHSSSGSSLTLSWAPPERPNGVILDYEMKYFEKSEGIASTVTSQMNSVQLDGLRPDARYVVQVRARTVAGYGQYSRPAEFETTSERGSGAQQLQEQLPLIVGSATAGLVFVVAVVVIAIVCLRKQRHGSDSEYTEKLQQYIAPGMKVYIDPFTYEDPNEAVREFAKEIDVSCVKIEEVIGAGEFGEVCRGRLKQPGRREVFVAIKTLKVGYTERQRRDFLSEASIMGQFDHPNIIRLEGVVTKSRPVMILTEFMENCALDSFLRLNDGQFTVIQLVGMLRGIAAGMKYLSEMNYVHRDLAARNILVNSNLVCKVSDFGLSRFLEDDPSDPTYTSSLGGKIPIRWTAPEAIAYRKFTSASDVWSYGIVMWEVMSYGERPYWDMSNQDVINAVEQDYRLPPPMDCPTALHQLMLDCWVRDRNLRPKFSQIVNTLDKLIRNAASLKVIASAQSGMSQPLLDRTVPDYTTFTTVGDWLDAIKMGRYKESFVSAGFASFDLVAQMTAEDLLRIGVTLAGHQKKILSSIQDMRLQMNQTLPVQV
Inhibitor of nuclear factor kappa-B kinase subunit alpha (Homo sapiens), sequence (O15111 whole entry): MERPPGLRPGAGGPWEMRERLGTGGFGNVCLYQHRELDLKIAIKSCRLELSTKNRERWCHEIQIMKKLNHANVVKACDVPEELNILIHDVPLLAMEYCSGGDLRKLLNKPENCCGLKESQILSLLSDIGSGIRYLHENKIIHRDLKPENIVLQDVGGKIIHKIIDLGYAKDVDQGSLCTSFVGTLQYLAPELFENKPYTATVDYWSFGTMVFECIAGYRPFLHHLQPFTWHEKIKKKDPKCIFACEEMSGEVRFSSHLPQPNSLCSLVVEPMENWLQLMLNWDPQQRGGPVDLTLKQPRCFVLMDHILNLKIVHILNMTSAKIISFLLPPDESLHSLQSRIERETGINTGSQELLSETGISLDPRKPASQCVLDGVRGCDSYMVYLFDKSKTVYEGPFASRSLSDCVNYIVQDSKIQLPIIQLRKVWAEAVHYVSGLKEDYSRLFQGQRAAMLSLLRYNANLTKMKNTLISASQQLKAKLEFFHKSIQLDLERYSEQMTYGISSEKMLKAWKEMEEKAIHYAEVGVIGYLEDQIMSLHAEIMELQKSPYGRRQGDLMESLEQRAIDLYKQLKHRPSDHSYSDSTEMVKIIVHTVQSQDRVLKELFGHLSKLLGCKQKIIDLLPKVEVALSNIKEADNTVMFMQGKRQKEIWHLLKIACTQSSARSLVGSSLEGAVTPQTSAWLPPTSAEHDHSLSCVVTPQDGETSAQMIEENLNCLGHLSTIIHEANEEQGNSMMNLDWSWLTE
Calcium/calmodulin-dependent protein kinase type 1G (Homo sapiens), sequence (Q96NX5 whole entry): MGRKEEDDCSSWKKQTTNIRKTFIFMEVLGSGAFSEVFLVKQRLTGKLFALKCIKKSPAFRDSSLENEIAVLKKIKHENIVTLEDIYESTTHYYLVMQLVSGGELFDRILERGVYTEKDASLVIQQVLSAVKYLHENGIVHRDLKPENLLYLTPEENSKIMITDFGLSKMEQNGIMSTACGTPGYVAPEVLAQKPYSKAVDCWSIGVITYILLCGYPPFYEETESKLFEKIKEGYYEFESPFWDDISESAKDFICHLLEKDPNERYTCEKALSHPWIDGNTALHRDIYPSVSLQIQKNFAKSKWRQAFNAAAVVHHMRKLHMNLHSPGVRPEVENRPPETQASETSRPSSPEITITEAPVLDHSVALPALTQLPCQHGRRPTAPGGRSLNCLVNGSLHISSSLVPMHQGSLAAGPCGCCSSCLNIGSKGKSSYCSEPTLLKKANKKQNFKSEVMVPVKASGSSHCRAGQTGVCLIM
Casein kinase I isoform alpha (Homo sapiens), sequence (P48729 2-337 limits assumed): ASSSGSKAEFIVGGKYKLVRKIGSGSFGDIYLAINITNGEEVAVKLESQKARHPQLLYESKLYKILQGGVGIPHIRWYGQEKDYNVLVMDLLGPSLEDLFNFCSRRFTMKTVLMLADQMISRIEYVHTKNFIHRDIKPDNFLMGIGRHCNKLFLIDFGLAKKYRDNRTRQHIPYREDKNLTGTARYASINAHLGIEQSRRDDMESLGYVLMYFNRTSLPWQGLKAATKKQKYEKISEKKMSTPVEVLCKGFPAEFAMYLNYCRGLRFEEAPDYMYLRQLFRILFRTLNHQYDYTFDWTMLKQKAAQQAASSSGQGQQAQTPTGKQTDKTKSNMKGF

Which residual activity [1] does the source give for `Cc1nc(Cc2cccc(C(F)(F)F)c2)sc1-c1ccc(C(N)=O)nc1` [TP-024n] here?
The residual activity was 100%.

And the residual activity [2]?
The residual activity was 96%.

And the residual activity [3]?
The residual activity was 39%.

What about the residual activity [4] of the same compound?
The residual activity was 93%.

And the residual activity [5]?
Its residual activity is 76%.

What about the residual activity [6] of the same compound?
The residual activity was 100%.

What about the residual activity [7] of the same compound?
The residual activity was 100%.

And the residual activity [8]?
Its residual activity is 100%.

What about the residual activity [9] of the same compound?
Its residual activity is 88%.

What about the residual activity [10] of the same compound?
The residual activity was 100%.

What about the residual activity [11] of the same compound?
The residual activity was 100%.

What about the residual activity [12] of the same compound?
The residual activity was 93%.

And the residual activity [13]?
Its residual activity is 98%.

And the residual activity [14]?
The residual activity was 100%.

And the residual activity [15]?
The residual activity was 67%.

And the residual activity [16]?
The residual activity was 100%.

And the residual activity [17]?
The residual activity was 100%.

What about the residual activity [18] of the same compound?
Its residual activity is 100%.

What about the residual activity [19] of the same compound?
The residual activity was 99%.

And the residual activity [20]?
The residual activity was 67%.

What about the residual activity [21] of the same compound?
The residual activity was 100%.

What about the residual activity [22] of the same compound?
Its residual activity is 85%.

And the residual activity [23]?
Its residual activity is 82%.

What about the residual activity [24] of the same compound?
The residual activity was 96%.

What about the residual activity [25] of the same compound?
The residual activity was 75%.

And the residual activity [26]?
Its residual activity is 94%.

What about the residual activity [27] of the same compound?
The residual activity was 99%.

What about the residual activity [28] of the same compound?
The residual activity was 100%.

What about the residual activity [29] of the same compound?
The residual activity was 99%.

What about the residual activity [30] of the same compound?
The residual activity was 88%.

What about the residual activity [31] of the same compound?
Its residual activity is 85%.

What about the residual activity [32] of the same compound?
The residual activity was 82%.

What about the residual activity [33] of the same compound?
The residual activity was 100%.

And the residual activity [34]?
The residual activity was 100%.

And the residual activity [35]?
Its residual activity is 100%.

What about the residual activity [36] of the same compound?
The residual activity was 85%.

What about the residual activity [37] of the same compound?
The residual activity was 99%.

What about the residual activity [38] of the same compound?
Its residual activity is 100%.

And the residual activity [39]?
Its residual activity is 100%.

And the residual activity [40]?
The residual activity was 83%.

And the residual activity [41]?
Its residual activity is 62%.

What about the residual activity [42] of the same compound?
Its residual activity is 80%.

What about the residual activity [43] of the same compound?
The residual activity was 80%.

What about the residual activity [44] of the same compound?
Its residual activity is 84%.

And the residual activity [45]?
The residual activity was 91%.

Which results are given for `Cc1cc(-n2nc(Cc3cc(F)cc(C(F)(F)F)c3)nc2C)ccc1C(N)=O` [TP-024]?
residual activity [1]: 91%; residual activity [2]: 91%; residual activity [3]: 100%; residual activity [4]: 100%; residual activity [5]: 94%; residual activity [6]: 100%; residual activity [7]: 100%; residual activity [8]: 100%; residual activity [9]: 100%; residual activity [10]: 100%; residual activity [11]: 100%; residual activity [12]: 92%; residual activity [13]: 100%; residual activity [14]: 100%; residual activity [15]: 92%; residual activity [16]: 100%; residual activity [17]: 100%; residual activity [18]: 100%; residual activity [19]: 100%; residual activity [20]: 100%; residual activity [21]: 100%; residual activity [22]: 71%; residual activity [23]: 90%; residual activity [24]: 98%; residual activity [25]: 83%; residual activity [26]: 87%; residual activity [27]: 100%; residual activity [28]: 100%; residual activity [29]: 100%; residual activity [30]: 97%; residual activity [31]: 100%; residual activity [32]: 95%; residual activity [33]: 100%; residual activity [34]: 100%; residual activity [35]: 100%; residual activity [36]: 94%; residual activity [37]: 78%; residual activity [38]: 99%; residual activity [39]: 100%; residual activity [40]: 83%; residual activity [41]: 100%; residual activity [42]: 100%; residual activity [43]: 92%; residual activity [44]: 66%; residual activity [45]: 100%
